The source made the active and inactive calls. The rule behind the calls is not given here.

Series [1] addresses T1, Acetylcholinesterase (Rattus norvegicus, UniProt P37136).
T1 sequence (P37136 whole entry): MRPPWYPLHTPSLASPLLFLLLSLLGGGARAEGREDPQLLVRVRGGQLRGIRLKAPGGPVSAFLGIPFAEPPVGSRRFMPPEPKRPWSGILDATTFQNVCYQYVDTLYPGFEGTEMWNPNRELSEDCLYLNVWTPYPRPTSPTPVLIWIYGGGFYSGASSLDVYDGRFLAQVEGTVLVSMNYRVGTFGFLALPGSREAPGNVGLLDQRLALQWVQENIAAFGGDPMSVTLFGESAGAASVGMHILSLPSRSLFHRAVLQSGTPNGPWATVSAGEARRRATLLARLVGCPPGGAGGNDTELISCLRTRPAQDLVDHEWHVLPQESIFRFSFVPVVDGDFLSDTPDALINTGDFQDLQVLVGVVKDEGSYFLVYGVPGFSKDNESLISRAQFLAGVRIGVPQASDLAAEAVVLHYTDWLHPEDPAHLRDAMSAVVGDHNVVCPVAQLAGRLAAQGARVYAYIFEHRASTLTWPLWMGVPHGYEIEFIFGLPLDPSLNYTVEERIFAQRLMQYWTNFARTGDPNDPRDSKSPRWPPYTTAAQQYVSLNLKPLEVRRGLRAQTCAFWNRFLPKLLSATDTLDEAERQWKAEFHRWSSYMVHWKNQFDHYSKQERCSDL
Kind of series: Inhibition of AChE in rat cortex homogenates using acetylthiocholine iodide substrate incubated for 15 mins by UV spectroscopy based Ellman's method. (In general: Ellman's reagent forms a yellow product with free thiols.)

Series [2] has as its target Butyrylcholinesterase (Rattus norvegicus, UniProt Q9JKC1). Kind of series: Inhibition of BChE in rat serum using butyrylthiocholine iodide substrate incubated for 15 mins by UV spectroscopy based Ellman's method. The format is cell-free.
Series [3] deals with T1, Acetylcholinesterase. Kind of series: Retention time in rat cortex homogenates at 1 mmol after 24 hrs by HPLC-MS method. The conditions noted are these: tissue homogenate. The format is ADME.
The target of series [4] is T1, Acetylcholinesterase. Kind of series: Prodrug activation in rat cortex homogenates treated with 1 mmol 2-Methoxy-4-(piperidin-1-ylmethyl)phenyl dimethylcarbamate assessed as AChE-mediated compound formation after 24 hrs by HPLC-MS method. The format is ADME. The settings on record: tissue homogenate.
Series [5] in a line: Metal chelating activity assessed as inhibition of copper-mediated Amyloid beta (1 to 40) aggregation at 50 uM after 48 hrs by transmission electron microscopy. It is filed as physicochemical.
Series [6] in a line: Antioxidant activity assessed as ABTS radical cation scavenging activity. The format is physicochemical.
The target of series [7] is T1, Acetylcholinesterase. Kind of series: Prodrug activation in rat cortex homogenates assessed as AChE-mediated 2-methoxy-4-(piperidin-1-ylmethyl)phenol formation at 1 mmol after 24 hrs by HPLC-MS method. The settings on record: tissue homogenate.
Series [8] has as its target Amyloid-beta precursor protein (Homo sapiens) (UniProt P05067). Kind of series: Inhibition of Amyloid beta (1 to 40) (unknown origin) assessed as self-mediated fibril formation at 50 uM incubated for 48 hrs by transmission electron microscopy.
In series [9] the target is Butyrylcholinesterase (Rattus norvegicus) (UniProt Q9JKC1). Kind of series: Potency index, ratio of IC50 for rivastigmine to IC50 for test compound against BChE in rat serum using butyrylthiocholine iodide substrate incubated for 15 mins by UV spectroscopy based Ellman's method. The format is cell-free.
Butyrylcholinesterase (Rattus norvegicus), sequence (Q9JKC1 as listed by the source): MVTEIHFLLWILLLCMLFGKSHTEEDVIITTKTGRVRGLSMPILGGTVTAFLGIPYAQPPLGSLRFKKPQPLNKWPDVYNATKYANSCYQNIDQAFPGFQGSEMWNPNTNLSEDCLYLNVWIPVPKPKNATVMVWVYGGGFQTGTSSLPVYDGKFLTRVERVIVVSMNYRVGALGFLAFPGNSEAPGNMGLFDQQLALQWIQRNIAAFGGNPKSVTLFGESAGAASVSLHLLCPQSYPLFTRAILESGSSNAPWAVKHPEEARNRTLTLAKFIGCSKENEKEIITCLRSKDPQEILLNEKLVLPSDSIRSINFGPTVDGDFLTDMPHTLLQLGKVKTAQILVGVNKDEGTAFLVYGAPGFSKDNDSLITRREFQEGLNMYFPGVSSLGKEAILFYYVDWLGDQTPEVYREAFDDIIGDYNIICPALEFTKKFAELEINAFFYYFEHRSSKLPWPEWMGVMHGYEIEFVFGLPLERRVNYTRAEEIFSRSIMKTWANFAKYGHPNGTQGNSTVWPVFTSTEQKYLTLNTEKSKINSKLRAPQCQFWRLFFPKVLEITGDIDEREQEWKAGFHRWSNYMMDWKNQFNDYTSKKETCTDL

Amyloid-beta precursor protein (Homo sapiens), sequence (P05067 whole entry): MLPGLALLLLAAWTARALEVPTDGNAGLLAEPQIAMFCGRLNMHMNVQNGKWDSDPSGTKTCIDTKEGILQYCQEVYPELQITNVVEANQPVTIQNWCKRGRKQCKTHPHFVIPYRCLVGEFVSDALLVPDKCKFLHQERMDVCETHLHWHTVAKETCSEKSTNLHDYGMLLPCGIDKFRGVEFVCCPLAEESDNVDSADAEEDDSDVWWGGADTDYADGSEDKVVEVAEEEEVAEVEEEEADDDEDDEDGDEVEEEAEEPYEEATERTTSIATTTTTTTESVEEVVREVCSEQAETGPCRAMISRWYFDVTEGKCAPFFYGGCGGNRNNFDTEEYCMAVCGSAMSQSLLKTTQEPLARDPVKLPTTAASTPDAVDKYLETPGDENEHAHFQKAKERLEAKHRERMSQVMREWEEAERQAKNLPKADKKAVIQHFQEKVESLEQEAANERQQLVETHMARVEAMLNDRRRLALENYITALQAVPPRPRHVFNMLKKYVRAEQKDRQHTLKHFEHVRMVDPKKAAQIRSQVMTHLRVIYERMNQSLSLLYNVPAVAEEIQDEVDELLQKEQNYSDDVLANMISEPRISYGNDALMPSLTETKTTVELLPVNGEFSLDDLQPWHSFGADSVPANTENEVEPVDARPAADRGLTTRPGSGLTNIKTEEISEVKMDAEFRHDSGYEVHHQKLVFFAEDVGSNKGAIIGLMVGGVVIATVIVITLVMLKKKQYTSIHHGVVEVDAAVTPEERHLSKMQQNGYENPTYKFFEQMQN
Butyrylcholinesterase, sequence (Q9JKC1 whole entry): as the sequence (Q9JKC1 as listed by the source) above

For `CCN(CC)Cc1ccc(OC)c(OC(=O)N(C)C)c1`, the IC50 in series [1] was 1480 nM; in series [2], 79 nM.

As for `COc1cc(CN2CCCCC2)ccc1O`, the Retention_time in [3] was 5.5 min. For the same compound, the Drug metabolism entry in series [4] was “metabolite_detected”. Moreover, the “inhibition (INH)” value is listed as “Active” in [5] and “Dose-dependent effect” in series [6]. In series [6], the IC50 came out at 2910 nM.

Consider `COc1cccc(CN2CCCCC2)c1OC(=O)N(C)C`, for which the IC50 in [1] was 22700 nM; in series [2] it was 3130 nM.

Turning to `COc1cc(CN2CCCCC2)ccc1OC(=O)N(C)C`, the Retention_time in series [3] is 6.84 min. Moreover, in [7], the Drug metabolism entry is “metabolite_detected”. Moreover, the IC50 in [1] was determined as 97 nM; in series [2] it was 24 nM. For the same compound, in [8], the inhibition entry was “Active”.

Consider `COc1cc(CN2CCOCC2)ccc1OC(=O)N(C)C`, for which the IC50 worked out at 1710 nM in series [1] and 430 nM in series [2].

Consider `COc1ccc2[nH]cc(CCNC(C)=O)c2c1` [MELATONIN], for which, in [6], the IC50 was determined as 1920 nM and the “inhibition (INH)” value is given as “Dose-dependent effect”.

Take `COc1ccc(C(C)N2CCCC2)cc1OC(=O)N(C)C` (stereo not given): the IC50 in series [1] is 1920 nM; in series [2] it was 82 nM.

With `COc1ccc(C(C)N2CCCCC2)cc1OC(=O)N(C)C` (stereo not given), the IC50 in [1] was 1420 nM; in [2], 34 nM.

On to `CCN(CC)C(C)c1ccc(OC)c(OC(=O)N(C)C)c1` (stereo not given), for which the IC50 in [1] was determined as 2770 nM; in [2], 130 nM.

For `COc1cc(C(C)N2CCCC2)ccc1OC(=O)N(C)C` (stereo not given), the concentration for half-maximal inhibition (IC50) came out at 190 nM in series [1] and 18 nM in series [2].

As to `COc1cc(/C=C/C(=O)CC(=O)/C=C/c2ccc(O)c(OC)c2)ccc1O`, the inhibition result in series [8] is “Active”.

For `CCN(CC)C(C)c1ccc(OC(=O)N(C)C)c(OC)c1` (stereo not given), the IC50 in series [1] is 240 nM; in series [2], 63 nM.

For `COc1cc(C(C)N2CCOCC2)ccc1OC(=O)N(C)C` (stereo not given), the 50% inhibitory concentration (IC50) in series [1] was 4980 nM; in series [2], 310 nM.

As to `COc1ccc(C(C)N2CCOCC2)cc1OC(=O)N(C)C` (stereo not given), the IC50 in [1] stood at 23300 nM; in [2], 270 nM.

Turning to `COc1ccc(CN2CCCCC2)cc1OC(=O)N(C)C`, the IC50 in series [1] is 660 nM; in series [2] it was 10 nM. The inhibition result in series [8] is “Active”. The Ratio IC50 in [9] amounted to 40.

For `COc1cc(C(C)N2CCCCC2)ccc1OC(=O)N(C)C` (stereo not given), the IC50 in [1] turned out to be 110 nM; in [2], 8 nM. For the same compound, the inhibition entry in series [8] was “Active”. The Ratio IC50 in series [9] was found to be 40.

Take `COc1cc(CN2CCCC2)ccc1OC(=O)N(C)C`: the values for the IC50 in series [1] and in [2] were 130 nM and 12 nM, respectively.

As for `COc1ccc(CN2CCOCC2)cc1OC(=O)N(C)C`, the values for the IC50 in series [1] and in series [2] were 20800 nM and 120 nM, respectively.

With `COc1ccc(CN2CCCC2)cc1OC(=O)N(C)C`, the IC50 in series [1] was determined as 2870 nM; in [2], 29 nM.

For the compound `CCN(C)C(=O)Oc1cccc([C@H](C)N(C)C)c1`, in series [8], the inhibition result is “inactive”.

Take `CCN(CC)Cc1ccc(OC(=O)N(C)C)c(OC)c1`: the IC50 in [1] is 110 nM; in series [2], 35 nM.

As usually defined, the IC50 is the midpoint of a concentration-inhibition curve.

These data come from ChEMBL document CHEMBL3351918 (Bioorg Med Chem, 2014).
